Where two headings read alike, the source gives them in different places.
What was measured:
[1] = tested on: E. coli H1443 (fepA+, cir+, fiu+); experiment: Agar diffusion antibacterial susceptibility assay; assay type: cell-based; details: Escherichia coli, 24 h, 37° C., read-out: Diameter of growth inhibition zones; for zone of inhibition at 100 µM: 50 μL of 0.1 mM solution; for zone of inhibition at 200 µM: 50 μL of 0.2 mM solution
Protocol: (§1) All liquids and media were sterilized by autoclaving (121° C., 15 min) before use. All aqueous solutions and media were prepared using distilled, deionized, and filtered water (Millipore Milli-Q Advantage A10 Water Purification System). Luria broth (LB) was purchased from VWR. Mueller-Hinton No. 2 broth (MHII broth; cation adjusted) was purchased from Sigma-Aldrich (St. Louis, Mo.). Iron-deficient (—Fe) MHII broth was prepared by adding 0.8 mL of a 1 mg/mL sterile aq. solution of 2,2′-bipyridine to 49.2 mL of MHII broth. Iron-rich (+Fe) MHII broth was prepared by adding 0.8 mL of a 1 mg/mL sterile aq. solution of FeCl3 to 49.2 mL of MHII broth. Mueller-Hinton No. 2 agar (MHII agar; HiMedia Laboratories) was purchased from VWR. Iron-deficient (−Fe) MHII agar was prepared by adding 0.5 mL of a 1 mg/mL sterile aq. solution of 2,2′-bipyridine to 34 mL of melted MHII agar with gentle mixing. Iron-rich (+Fe) MHII agar was prepared by adding 0.5 mL of a 1 mg/mL sterile aq. solution of FeCl3 to 34 mL of melted MHII agar with gentle mixing. See also Wencewicz, T. A. Dissertation, University of Notre Dame, Notre Dame, Ind., 2011, for relevant techniques.
(§2) Antibacterial Susceptibility Testing by the Agar Diffusion Assay.
(§3) Antibacterial activity of the compounds was determined by a modified Kirby-Bauer agar diffusion assay. Overnight cultures of test organisms were grown in LB broth for 18-24 h and standard suspensions of […] were prepared in saline solution (0.9% NaCl) according to a 0.5 BaSO4 McFarland Standard. This standardized suspension (0.1 mL) was added to 34 mL of sterile, melted agar (−Fe or +Fe) tempered to 47-50° C. After gentle mixing, the inoculated agar media was poured into a sterile plastic petri dish (145 mm×20 mm) and allowed to solidify near a flame with the lid ajar for about 30 min. Wells of 9.0 mm diameter were cut from the petri dish agar and filled with exactly 50 μL of the test sample solution. The petri dish was incubated at 37° C. for 18-24 h and the inhibition zone diameters were measured (mm) with an electronic caliper after 24 h.

[2] = tested on: P. aeruginosa K648 (pvd−, pch−); experiment: Agar diffusion antibacterial susceptibility assay; assay type: cell-based, Pseudomonas aeruginosa; details: for zone of inhibition at 100 µM / zone of inhibition at 200 µM: Pseudomonas aeruginosa, 24 h, read-out: Diameter of growth inhibition zones, P. aeruginosa K648 (pvd−, pch−), 37° C., 24 hours; for zone of inhibition at 100 µM: 50 μL of 0.1 mM solution; for activity against K648 strain (agar diffusion, in words): iron-rich medium; for zone of inhibition at 200 µM: 50 μL of 0.2 mM solution
Protocol: as §1, §2, §3

P. aeruginosa Pa6 [3] = experiment: Agar diffusion antibacterial susceptibility assay; assay type: cell-based, Pseudomonas aeruginosa; details: for Diameter of growth inhibition zones: −Fe agar; for activity against clinical isolate Pa6 (agar diffusion, in words): even under iron-deficient conditions
Protocol: as §1, §2, §3

P. aeruginosa KW799/61 = experiment: microbe, parasite or virus in culture; assay type: cell-based, Pseudomonas aeruginosa; details: for Diameter of growth inhibition zones: P. aeruginosa KW799/61
Protocol: as §1, with “All” for “All liquids and media were sterilized by autoclaving (121° C., 15 min) before use. All”, “mixing.” for “mixing. See also Wencewicz, T. A. Dissertation, University of Notre Dame, Notre Dame, Ind., 2011, for relevant techniques.”
as §2
as §3, with “After gentle mixing, the inoculated agar media was poured into a sterile plastic petri dish (145 mm×20 mm) and allowed to solidify near a flame with the lid ajar for about 30 min.” left out

P. aeruginosa Pa6 [4] = experiment: MIC90 by broth microdilution assay; assay type: cell-based, Pseudomonas aeruginosa; details: for MIC90: P. aeruginosa Pa6, 37° C., 20 h; for activity against Pa6 (MIC assay, in words): exception among wild type strains
Protocol: ^aMIC90 values (μM) were determined using the broth microdilution method in Mueller-Hinton broth No. 2 (MHII) with visual end point analysis according to the CLSI guidelines (Methods for Dilution Antimicrobial Susceptibility Tests for Bacteria that Grow Aerobically, 8th ed. (Villanova, Pa., USA), Clinical and Laboratory Standards Institute (CLSI), 2009, approved standard document M07-A7). ^bEach compound was tested in triplicate.
as §1
Determination of MIC90 Values by the Broth Microdilution Assay.
Antibacterial activity of the compounds was determined by measuring their minimum inhibitory concentrations (MIC90's) using the broth microdilution method according to the Clinical and Laboratory Standards Institute (CLSI, formerly the NCCLS) guidelines. Each well of a 96-well microtiter plate was filled with 50 μL of sterile broth media (−Fe or +Fe). Each test compound was dissolved in DMSO making a 20 mM solution, and then diluted with sterile broth media (−Fe or +Fe) to 400 or 800 μM. Exactly 50 μL of the compound solution was added to the first well of the microtiter plate and 2-fold serial dilutions were made down each row of the plate. Exactly 50 μL of bacterial inoculum (5×10^5 CFU/mL in broth media) was then added to each well giving a total volume of 100 μL/well. The plate was incubated at 37° C. for 20 h and then each well was examined for bacterial growth. The MIC90 was recorded as the lowest compound concentration (μM) required to inhibit 90% of bacterial growth as judged by turbidity of the culture media relative to a row of wells filled with a DMSO standard.

[5] = −Fe (iron-deficient) MHII broth
[6] = Pseudomonas aeruginosa, +Fe (iron-rich) MHII broth
[7] = P. aeruginosa Pa6, 50 μL of 0.2 mM solution, 37° C., 24 hours
[8] = Pseudomonas aeruginosa, P. aeruginosa Pa6, +Fe agar, 50 μL of 0.2 mM solution, 37° C., 24 hours, read-out: Diameter of growth inhibition zones
[9] = Pseudomonas aeruginosa, KW799/61, 24 h, read-out: Diameter of growth inhibition zones, P. aeruginosa KW799/61, +Fe agar, 50 μL of 0.2 mM solution, 37° C., 24 hours
[10] = Pseudomonas aeruginosa, KW799/61, 24 h, read-out: Diameter of growth inhibition zones, P. aeruginosa KW799/61, −Fe agar, 50 μL of 0.2 mM solution, 37° C., 24 hours

| Structure (SMILES) | activity against K648 strain (agar diffusion, in words) [2] | activity against clinical isolate Pa6 (agar diffusion, in words) (P. aeruginosa Pa6 [3]) | MIC90 (P. aeruginosa Pa6 [4]; [5]) [µM] | MIC90 (P. aeruginosa Pa6 [4]; [6]) [µM] | activity against Pa6 (MIC assay, in words) (P. aeruginosa Pa6 [4]) | zone of inhibition at 200 µM ([2]; +Fe agar) [mm] | zone of inhibition at 200 µM ([2]; −Fe agar) [mm] | Diameter of growth inhibition zones (P. aeruginosa Pa6 [3]; [7]) [mm] | zone of inhibition at 200 µM (P. aeruginosa Pa6 [3]; [8]) [mm] | zone of inhibition at 200 µM (P. aeruginosa KW799/61; [9]) [mm] | zone of inhibition at 200 µM (P. aeruginosa KW799/61; [10]) [mm] | also measured |
| --- | --- | --- | --- | --- | --- | --- | --- | --- | --- | --- | --- | --- |
| CC(=O)Oc1cccc(C(=O)NCCCC(CCCNC(=O)c2cccc(OC(C)=O)c2OC(C)=O)(CCCNC(=O)c2cccc(OC(C)=O)c2OC(C)=O)NC(=O)CCC(=O)NC(C(=O)NC2C(=O)N3C2SC(C)(C)C3C(=O)O)c2ccccc2)c1OC(C)=O (stereo not shown) [Compound 10] | inactive | no activity | >200 | > 200 | inactive | – | – | – | – | – | – | zone of inhibition at 100 µM ([1]; +Fe agar): 0 mm; zone of inhibition at 100 µM ([1]; −Fe agar): 19 mm; zone of inhibition at 100 µM ([2]; +Fe agar): 0 mm; zone of inhibition at 100 µM ([2]; −Fe agar): 15 mm; Diameter of growth inhibition zones (P. aeruginosa Pa6 [3]; P. aeruginosa Pa6, 50 μL of 0.1 mM solution, 37° C., 24 hours): 0 mm; zone of inhibition at 100 µM (P. aeruginosa Pa6 [3]; Pseudomonas aeruginosa, P. aeruginosa Pa6, +Fe agar, 50 μL of 0.1 mM solution, 37° C., 24 hours, read-out: Diameter of growth inhibition zones): 0 mm; Diameter of growth inhibition zones (P. aeruginosa KW799/61; +Fe agar, 50 μL of 0.1 mM solution, 37° C., 24 hours): 13P; zone of inhibition at 100 µM (P. aeruginosa KW799/61; Pseudomonas aeruginosa, KW799/61, 24 h, read-out: Diameter of growth inhibition zones, P. aeruginosa KW799/61, −Fe agar, 50 μL of 0.1 mM solution, 37° C., 24 hours): 21 mm |
| CC1(C)S[C@@H]2[C@H](NC(=O)[C@H](N)c3ccc(O)cc3)C(=O)N2[C@H]1C(=O)O [Amoxicillin, reference compound] | – | – | >200 | > 200 | – | 0 | 0 | 0 | 0 | 42 | 39 | activity against permeable mutant (large zones of inhibition, in words) (P. aeruginosa KW799/61; P. aeruginosa permeable mutant K799/61): highly active |
| CC1(C)S[C@@H]2[C@H](NC(=O)[C@H](N)c3ccccc3)C(=O)N2[C@H]1C(=O)O [Ampicillin, reference compound] | – | – | >200 | > 200 | – | 0 | 0 | 0 | 0 | 40 | 40 | – |
| CC(=O)Oc1cccc(C(=O)NCCCC(CCCNC(=O)c2cccc(OC(C)=O)c2OC(C)=O)(CCCNC(=O)c2cccc(OC(C)=O)c2OC(C)=O)NC(=O)CCC(=O)NC(C(=O)NC2C(=O)N3C2SC(C)(C)C3C(=O)O)c2ccc(O)cc2)c1OC(C)=O (stereo not shown) [Compound 11] | inactive | no activity | >200 | > 200 | inactive | 0 | 17 | 0 | 0 | – | 26 | zone of inhibition at 200 µM ([1]; +Fe agar): 0 mm; zone of inhibition at 200 µM ([1]; −Fe agar): 21 mm; Diameter of growth inhibition zones (P. aeruginosa KW799/61; +Fe agar, 50 μL of 0.2 mM solution, 37° C., 24 hours): 13P |
